Literature values, collected in US20220265670A1, “COMPOSITION AND USE THEREOF FOR THE TREATMENT OF CUTANEOUS MASTOCYTOSIS” (AC BIOSCIENCE SA, priority 2019, published 2022).

Assays:
mast degranulation = conditions: low masitinib concentrations
[1] = tested on: JM-mutated (exon 11) c-Kit; conditions: cellular level; read-out: IC50, JM-mutated (exon 11) c-Kit-dependent cell proliferation
PDGF-R = conditions: cellular level; read-out: IC50, PDGF-R-dependent cell proliferation
c-Kit = c-Kit (Homo sapiens, UniProt P10721)
c-Kit, sequence (P10721 26-976): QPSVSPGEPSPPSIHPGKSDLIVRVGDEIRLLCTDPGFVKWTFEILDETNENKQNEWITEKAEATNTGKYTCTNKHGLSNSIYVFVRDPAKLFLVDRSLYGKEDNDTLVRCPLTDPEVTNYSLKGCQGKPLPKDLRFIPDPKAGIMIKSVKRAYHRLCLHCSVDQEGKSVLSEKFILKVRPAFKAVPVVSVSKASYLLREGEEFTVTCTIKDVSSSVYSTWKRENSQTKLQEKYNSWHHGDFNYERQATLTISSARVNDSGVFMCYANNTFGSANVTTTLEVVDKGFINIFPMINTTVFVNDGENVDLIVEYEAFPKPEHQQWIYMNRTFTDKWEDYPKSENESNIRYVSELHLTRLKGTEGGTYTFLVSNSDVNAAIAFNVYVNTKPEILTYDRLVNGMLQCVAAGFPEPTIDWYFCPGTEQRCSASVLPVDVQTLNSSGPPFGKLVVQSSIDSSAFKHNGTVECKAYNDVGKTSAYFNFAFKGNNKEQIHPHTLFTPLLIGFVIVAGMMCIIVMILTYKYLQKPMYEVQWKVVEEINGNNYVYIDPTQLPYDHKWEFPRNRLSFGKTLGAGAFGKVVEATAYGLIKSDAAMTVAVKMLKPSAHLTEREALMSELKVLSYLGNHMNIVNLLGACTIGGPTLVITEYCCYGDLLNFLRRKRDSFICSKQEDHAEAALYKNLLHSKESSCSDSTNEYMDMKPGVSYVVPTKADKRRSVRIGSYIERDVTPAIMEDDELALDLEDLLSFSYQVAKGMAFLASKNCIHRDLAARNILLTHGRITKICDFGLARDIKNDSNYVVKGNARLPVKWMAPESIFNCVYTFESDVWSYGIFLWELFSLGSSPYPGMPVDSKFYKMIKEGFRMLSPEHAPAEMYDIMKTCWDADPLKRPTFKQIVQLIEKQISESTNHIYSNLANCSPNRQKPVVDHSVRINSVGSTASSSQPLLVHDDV

Compound	inhibition of mast degranulation (mast degranulation)	IC50 [1]	IC50 (PDGF-R)	inhibitory profile relative to masitinib (c-Kit)
Cc1ccc(NC(=O)c2ccc(CN3CCN(C)CC3)cc2)cc1Nc1nc(-c2cccnc2)cs1 [Masitinib]	significant inhibition of mast degranulation	5 nM	[…]	–
Cc1ccc(NC(=O)c2ccc(CN3CCNCC3)cc2)cc1Nc1nc(-c2cccnc2)cs1 [AB3280]	–	–	–	essentially the same inhibitory profile as masitinib, even though slightly less potent than masitinib
